Values of other authors in article PMC3954986 (Chemmedchem, 2013).

Test system: PLpro
Conditions: cited from earlier work

Row | Structure (SMILES) | IC50
1 | Sc1ncnc2nc[nH]c12 [Inhibitor 6MP, 6‐mercaptopurine] | 5 to 20 µM
2 | Nc1nc2nc[nH]c2c(=S)[nH]1 [Inhibitor 6TG, 6‐thioguanine] | 5 to 20 µM
